What was measured:
[1] = cited from earlier work
[2] = Stability of hexetidine in aqueous solution; type: physicochemical; conditions: neutral to weakly acidic aqueous solution; rearranges to two isomers up to an equilibrium
Source text: Aufgrund über Jahre geführter Untersuchungen sind die bekannten Methoden nicht geeignet, ein stabiles pharmazeutisches Präparat herzustellen. […] Es lagert sich bis zu einem Gleichgewicht in zwei isomere Substanzen um. Zwar wirken diese im Prinzip gleichartig, jedoch dürfen sie aus gesundheitsrechtlichen Gründen im Endprodukt nur geringfügig vorhanden sein.

[3] = cited from earlier work; remark: listed apart in the source

## CCCCC(CC)CN1CN(CC(CC)CCCC)CC(C)(N)C1 (centres unmarked) [Hexetidinsalz]
[1]
  Löslichkeit in Wasser: leicht löslich

## CCCCC(CC)CN1CN(CC(CC)CCCC)CC(C)(N)C1 (centres unmarked) [Hexetidin, 1,3-Bis-(2-ethylhexyl)-hexahydro-5-methyl-5-pyrimidinamin]
[2]
  Haltbarkeit in wässeriger Lösung: nur kurzfristig haltbar
[1]; Alkohol
  Löslichkeit in Alkohol: leicht löslich
[1]
  Löslichkeit in Wasser: nur schwer löslich
[1]; unpolare organische Lösungsmittel
  Löslichkeit in unpolaren organischen Lösungsmitteln: leicht löslich
[3]; known property
  Haut- und Schleimhaut-Verträglichkeit: gute
  Toxizität bei Resorption: geringe
[3]; use as 0,1% gargle solution over 20 years
  toxische Wirkung: nie beobachtet
